Test results published in US10174293B1, “Recombinant PB1 bacteriophages and uses thereof” (Charles Stark Draper Laboratory, Inc., priority 2018, dated 2019).

Tested on: drug sensitive strain
Test: Antibiotic susceptibility profiling with recombinant PB1 phages, drug sensitive strain
Format: cell-based, Pseudomonas aeruginosa
Text: In some embodiments of the method, the differences in the reporter gene expression of the recombinant PB1 bacteriophage observed in the antibiotic treated sub-sample and the untreated control sub-sample is defined as μ.

## gentamicin
Versus 'no drug' sample (FIG. 4B)
  luciferase activity of antibiotic treated sample: decline in luciferase activity
μ = difference in reporter expression, treated vs untreated (FIG. 4B)
  μ value over time: steady increase in μ value over time
